Measured values taken from patent US20150182431A1, “Compositions and Methods for Treatment of Hair with Reduced Hair Damage” (SYTHEON LTD, priority 2013, published 2015).

Conditions: for Fluorescence decay of fluorescein (FL), in words: 200 μM each, CuCl2 230 μM, CaCl2 2.3 mM
Method: The study was conducted in accordance with the methodology disclosed in “Novel Fluorometric Assay for Hydroxyl Radical Prevention Capacity Using Fluorescein as the Probe”, B Ou, M Hampsch-Woodill, J Flanagan, EK Deemer, R Prior, D Huang, J. Agric, Food Chem: 50(10); 2772-2777, 2002.
The Fenton reaction was initiated with the mixture of Cu^2+, CaCl2 and hydrogen peroxide at alkaline condition. Hydroxyl radicals were generated by the Fenton reagent mixture, oxidative damage was monitored by fluorescein (FL), a fluorescence probe sensitive to hydroxyl radicals. The loss of fluorescence intensity was an index of oxidation. Thus, the slower the fluorescence decay, the stronger the chelation for Cu^2+.

Structure (SMILES): COc1cc(C=C(C(C)=O)C(C)=O)cc(OC)c1OC [Compd. 1E, 3-(3,4,5-trimethoxybenzylidene) 2,4-pentanedione]
- Chelating ability for copper, in words: excellent chelating ability for copper
- Fluorescence decay of fluorescein (FL), in words: barely noted
- Chelation of Cu^2+ preventing the Fenton reaction, in words (equimolar amounts (230 μM) of compound and Cu^2+): almost completely chelated
- Attraction for calcium, in words (excess Ca^2+): little attraction for calcium

Structure (SMILES): O=C(O)CN(CCN(CC(=O)O)CC(=O)O)CC(=O)O [EDTA, Ethylenediamine tetraacetic acid, reference compound]
- Fluorescence decay of fluorescein (FL), in words: barely noted

Structure (SMILES): O=C(O)CC(NCCNC(CC(=O)O)C(=O)O)C(=O)O (stereo not shown) [EDDS, Ethylenediamine-N,N′-disuccinic acid, reference compound]
- Chelating ability for copper, in words: not an effective chelating agent for copper
- Fluorescence decay of fluorescein (FL), in words: barely noted
